The values below are quoted from earlier work in patent publication US8637551B2, “2-(1,2-benzisoxazol-3-yl)benzylamine derivatives” (Merck Sharp & Dohme B.V., priority 2009, dated 2014).

Each structure is given as a SMILES string.

Data set [1] deals with rat (Chung) model of neuropathic pain. The following applies: for anti-allodynic effects in the Chung model: clinically used reference drugs.
For data set [2], the system named is A-beta and A-delta fibres. The following applies: Lee et al 2005.
For data set [3], the system named is rat, mild thermal injury model.
Data set [4] relates to rat CFA model of inflammatory pain.
Data set [5] concerns nerve injured myelinated DRG. As to conditions: Yagi et al, 2000.
Data set [6] has as its system Brennan model. The following applies: local administration to the sciatic nerve 4 h after surgery; Dalle & Eisenach 2005.

As for `CN1CC[C@]23c4c5ccc(O)c4O[C@H]2[C@@H](O)C=C[C@H]3[C@H]1C5` [morphine], in data set [1], the “anti-allodynic effects in the Chung model” value is on record as “anti-allodynic effects”.

With `CNCC[C@H](Oc1cccc2ccccc12)c1cccs1` [duloxetine], the “anti-allodynic effects in the Chung model” value in data set [1] is reported as “anti-allodynic effects”.

Take `NCC1(CC(=O)O)CCCCC1` [gabapentin]: in data set [1], the “anti-allodynic effects in the Chung model” value is given as “anti-allodynic effects”.

Regarding `CCN(c1ccccc1)c1cc(=NC)n(C)c(C)n1.Cl` [ZD 7288], the “firing frequency of ectopic discharges” value in data set [2] is listed as “reduced the firing frequency of ectopic discharges”. Moreover, the spontaneous pain entry in data set [3] is reported as “blocks spontaneous pain”. The allodynia entry in data set [4] is recorded as “suppresses allodynia”. Moreover, the spontaneous activity result in data set [5] is recorded as “reduces spontaneous activity”. In data set [6], the mechanical allodynia result is recorded as “attenuates mechanical allodynia”. Further, the “reversal of mechanical allodynia” value in data set [1] (intraperitoneal, Chung/von Frey, Chaplan et al 2003) is “dose-dependently reverses mechanical allodynia”.
